Test results published in the NIST ThermoML archive (doi:10.1016/j.tca.2010.01.021).

Test: molar heat capacity at constant pressure
Details: 101.33 kPa, Crystal, Small (less than 1 g) adiabatic calorimetry

N.O=C(O)c1ccccc1 [ammonium benzoate]
Details	molar heat capacity at constant pressure [J/K/mol]
80.23 K	65.17
81.77 K	66.19
84.03 K	67.46
86.2 K	68.89
88.38 K	69.94
90.56 K	71.51
92.57 K	72.72
94.64 K	74.19
96.64 K	75.8
98.62 K	77.01
100.55 K	78.03
102.41 K	79.33
104.34 K	80.86
106.2 K	81.8
107.97 K	83.16
109.83 K	84.27
111.6 K	85.3
113.37 K	86.37
115.15 K	87.62
116.84 K	88.74
118.61 K	90.01
120.31 K	91.47
122.97 K	92.89
126.27 K	94.89
129.18 K	96.99
132.16 K	98.85
135.06 K	100.95
138.04 K	102.77
141.02 K	104.57
144.01 K	106.24
147 K	108.24
149.93 K	110.5
152.9 K	112.26
155.86 K	113.91
158.85 K	116.09
161.8 K	118.15
164.77 K	120.01
167.74 K	121.97
170.72 K	124.05
173.71 K	125.52
176.67 K	127.13
179.65 K	129.42
183.76 K	131.94
187.79 K	134.2
190.78 K	136.42
193.75 K	138.62
196.71 K	140.39
199.69 K	142.17
202.71 K	144.2
205.7 K	146.13
208.67 K	148.09
211.63 K	149.94
214.62 K	152.01
217.63 K	153.98
220.61 K	155.64
223.59 K	157.46
226.57 K	159.31
229.56 K	161.33
232.46 K	163.12
235.52 K	164.85
238.67 K	166.71
242.46 K	169.25
246.17 K	170.85
249.15 K	172.58
252.13 K	174.29
255.04 K	176.25
258.02 K	177.81
261.08 K	179.36
264.07 K	180.92
267.13 K	182.91
270.11 K	184.57
273.1 K	186.5
276.05 K	188.1
279 K	189.37
281.97 K	190.96
284.95 K	192.56
287.93 K	194.07
291 K	195.71
293.98 K	197.29
296.96 K	199.56
299.95 K	200.88
302.93 K	203.11
305.83 K	204.55
308.82 K	205.93
311.72 K	207.7
314.7 K	209.41
317.68 K	210.92
320.75 K	212.63
323.73 K	214.01
326.71 K	215.52
329.78 K	216.96
332.76 K	218.8
335.75 K	220.31
338.73 K	222.08
341.71 K	223.72
344.61 K	225.36
347.6 K	226.81
350.5 K	228.38
353.48 K	229.7
356.55 K	231.21
359.53 K	232.72
362.59 K	234.1
365.58 K	235.61
368.56 K	237.58
371.54 K	239.09
374.53 K	240.86
377.51 K	242.44
380.49 K	243.95
383.4 K	245.72
386.3 K	247.56
389.28 K	249.39
392.35 K	251.17
395.33 K	252.68
398.31 K	254.12
